Laboratory results taken from patent US20200308240A1, “Targeting Innate Immune Signaling in Neuroinflammation and Neurodegeneration” (The General Hospital Corporation, priority 2016, published 2020).
Entries after “also recorded” stand apart in the source; their conditions may differ.

Assays:
[1] = tested on: neuronal differentiated ReNcell VM cells; experiment: dsRNA mimetic (PolyIC)-induced neurodegeneration in differentiated ReNVM neurons, cell viability by Celltiter-Glo; type: cell-based, human; conditions: for viability of ReNVM neurons transfected with PolyIC: escalating doses of poly IC, 48 hours (2 days), relative to mock-transfected neurons, FIG. 3A-F; for rescue of PolyIC (dsRNA)-induced neurodegeneration / neuronal death: differentiated ReNVM human neurons transfected with PolyIC, FIGS. 4B-N
Description: FIGS. 3A-G. dsRNA induces a Type I interferon response and is sufficient to induced neurodegeneration in human neurons. A-E) Representative transmitted light images of differentiated ReNVM neurons transfected with increasing doses of PolyIC, a dsRNA mimetic, showing a dose-dependent loss of neurons after 48 hours. […] G) Western blots showing the elevated protein expression of type I interferon-stimulated genes in differentiated ReNVM cells 24 hour post transfection with PolyIC, using indicated antibodies.
FIGS. 4A-N. Inhibitors of key type I interferon regulators rescues PolyIC induced neurodegeneration in ReNVM cells.
Building on those findings, a novel in vitro human neuronal culture system was developed to recapitulate this pathophysiologic process. These cells can be used, e.g., to identify compounds that modulate dsRNA-mediated neurodegeneration, as a methodology for screening and validation of hits for the novel targets and related targets on the pathway for neurodegeneration and Alzheimer's disease pathogenesis as well as for purposes of drug screening and validation with the primary outcome being loss of neurons. Briefly, a dsRNA-mimetic was introduced into a human neural progenitor immortalized cell line, ReN VM cells, in vitro. There was profound induction of the Type I interferon signaling pathways that were stimulated in mouse models of neurodegeneration including the pattern recognition receptors, PKR and MDA5. Importantly, accelerated neuronal death was also observed over 48 hours that was dependent on the dose of the dsRNA introduced into the cytoplasm. These cell-based phenotypes in human neurons recapitulated and extended findings (described in PCT/US2015/060401) outlining cytoplasmic double-stranded RNA mediated neuronal cell death in multiple transgenic mouse lines (Nd1, Nd2, and Nd3), each expressing a different gene, and a model of induced cytoplasmic dsRNA of GFP causing accelerated neurodegeneration.
Deploying this cell-based in vitro model of accelerated neurodegeneration of human neurons, a number of inhibitors of Type I interferon signaling pathways were tested.
To determine if cytoplasmic dsRNA is sufficient to mediate neurodegeneration in human neurons, we transfected neuronal differentiated ReNcell VM cells 27, 28, a human neural cell line derived from ventral mesencephalon, with escalating doses of poly IC (which mimics a GC dinucleotide repeat). […] We observed a marked induction of the pattern recognition receptors MDA5 and PKR that are cytoplasmic receptors for dsRNA (FIG. 3G) and TBK1 phosphorylation (FIG. 4A). In addition, downstream signaling events, i.e., MAVS reduction and IRF3 translocation to the nucleus for the MDA5 pathway, and phosphorylation of p38 and HSP27 for the PKR pathway, indicate that that neurons are capable of mounting this innate immune response intrinsically. […]

[2] = tested on: IRF3 phosphorylation; experiment: IRF3 phosphorylation in poly-IC transfected ReNcell VM neurons; type: cell-based, human; conditions: poly-IC transfected ReNcell VM neurons treated with inhibitor
Source text: To determine if cytoplasmic dsRNA is sufficient to mediate neurodegeneration in human neurons, we transfected neuronal differentiated ReNcell VM cells 27, 28, a human neural cell line derived from ventral mesencephalon, with escalating doses of poly IC (which mimics a GC dinucleotide repeat). […] We observed a marked induction of the pattern recognition receptors MDA5 and PKR that are cytoplasmic receptors for dsRNA (FIG. 3G) and TBK1 phosphorylation (FIG. 4A). In addition, downstream signaling events, i.e., MAVS reduction and IRF3 translocation to the nucleus for the MDA5 pathway, and phosphorylation of p38 and HSP27 for the PKR pathway, indicate that that neurons are capable of mounting this innate immune response intrinsically.
Many mutations in the TBK1 coding region are linked to ALS and FTD in an autosomal dominant manner. Expression of these mutant isoforms have been difficult to detect at the RNA and protein levels, giving rise to the hypothesis that haploinsufficiency of TBK1 drives neurodegeneration. Inhibition of TBK1 kinase activity challenge the hypothesis that LOF mutations cause the pathogenesis. TBK1 is activated by polyubiquitination and regulated by proteins binding to its CCH domain, including optineurin which binds TBK1, is mutated in some familial forms of ALS that abrogates inhibition of IRF3 4.

Molecule: PolyIC
- viability of ReNVM neurons transfected with PolyIC [1]: dose-dependent loss in cell viability
- viability of ReNVM neurons transfected with PolyIC ([1]; listed as poly IC): dose-dependent reduction in their viability

Molecule: O=C(Nc1ccc(-c2ccnc(Nc3ccc(N4CCOCC4)cc3)n2)cc1)[C@@H]1CCCN1 [XL019, (S)-N-(4-(2-((4-morpholinophenyl)amino)pyrimidin-4-yl)phenyl)pyrrolidine-2-carboxamide]
- rescue of PolyIC (dsRNA)-induced neurodegeneration / neuronal death [1]: blocked neurodegeneration in dose dependent manner; also recorded: rescued PolyIC induced neurodegeneration

Molecule: C[C@@H]1CCN(C(=O)CC#N)C[C@@H]1N(C)c1ncnc2[nH]ccc12 [Tofacitinib, 3-((3R,4R)-4-methyl-3-(methyl(7H-pyrrolo [2,3-d]pyrimidin-4-yl)amino)piperidin-1-yl)-3-oxopropanenitrile]
- rescue of PolyIC (dsRNA)-induced neurodegeneration / neuronal death [1]: blocked neurodegeneration in dose dependent manner; also recorded: rescued PolyIC induced neurodegeneration

Molecule: CNC(=O)c1ccc(C)c(-n2c(C)cc(OCc3ccc(F)cc3F)c(Br)c2=O)c1 [PH 797804]
- rescue of PolyIC (dsRNA)-induced neurodegeneration / neuronal death [1]: did not show rescue of the neuronal death phenotype

Molecule: O=C(Nc1nc2cccc(-c3ccc(CN4CCS(=O)(=O)CC4)cc3)n2n1)C1CC1 [Filgotinib, N-[5-[4-[(1,1-Dioxido-4-thiomorpholinyl)methyl]phenyl][1,2,4]triazolo[1,5-a]pyridin-2-yl]cyclopropanecarboxamide]
- rescue of PolyIC (dsRNA)-induced neurodegeneration / neuronal death [1]: blocked neurodegeneration in dose dependent manner; also recorded: rescued PolyIC induced neurodegeneration

Molecule: O=C1Nc2ccc3ncsc3c2/C1=C/c1cnc[nH]1 [C16]
- rescue of PolyIC (dsRNA)-induced neurodegeneration / neuronal death [1]: did not show rescue of the neuronal death phenotype

Molecule: CC1(C)C(=O)C=C[C@]2(C)[C@H]3CC[C@@]4(C)[C@H](c5ccoc5)OC(=O)[C@H]5O[C@]54[C@]3(C)C=C[C@@H]12 [7DG]
- rescue of PolyIC (dsRNA)-induced neurodegeneration / neuronal death [1]: did not show rescue of the neuronal death phenotype

Molecule: Cl.O=C(NN1CCC(N2CCCC2)CC1)c1ccc(Nc2nccc(-c3cc4ccccc4s3)n2)cc1 [IKK16, N-(4-Pyrrolidin-1-yl-piperidin-1-yl)-[4-(4-benzo[b]thiophen-2-yl-pyrimidin-2-ylamino)phenyl]carboxamide hydrochloride]
- rescue of PolyIC (dsRNA)-induced neurodegeneration / neuronal death ([1]; hydrochloride): reversed poly-IC-mediated neurodegeneration; also recorded: rescued PolyIC induced neurodegeneration
- IRF3 phosphorylation [2]: reduced IRF3 phosphorylation

Molecule: Cc1cc(Nc2nc(N[C@@H](C)c3ncc(F)cn3)ncc2Cl)n[nH]1 [AZD1480, 5-Chloro-N2-[(1S)-1-(5-fluoro-2-pyrimidinyl)ethyl]-N4-(5-methyl-1H-pyrazol-3-yl)-2,4-pyrimidinediamine]
- rescue of PolyIC (dsRNA)-induced neurodegeneration / neuronal death [1]: rescued PolyIC induced neurodegeneration

Molecule: Cc1cnc(Nc2ccc(OCCN3CCCC3)cc2)nc1Nc1cccc(S(=O)(=O)NC(C)(C)C)c1 [TG101348, 2.N-tert-butyl-3-(5-methyl-2-(4-(2-(pyrrolidin-1-yl)ethoxy)phenylamino)pyrimidin-4-ylamino)benzenesulfonamide]
- rescue of PolyIC (dsRNA)-induced neurodegeneration / neuronal death [1]: blocked neurodegeneration in dose dependent manner; also recorded: rescued PolyIC induced neurodegeneration

Molecule: CCS(=O)(=O)N1CC(CC#N)(n2cc(-c3ncnc4[nH]ccc34)cn2)C1 [Baricitinib, 2-(3-(4-(7H-pyrrolo[2,3-d]pyrimidin-4-yl)-1H-pyrazol-1-yl)-1-(ethylsulfonyl)azetidin-3-yl)acetonitrile]
- rescue of PolyIC (dsRNA)-induced neurodegeneration / neuronal death [1]: blocked neurodegeneration in dose dependent manner; also recorded: rescued PolyIC induced neurodegeneration

Molecule: C1=C/COCc2cc(ccc2OCCN2CCCC2)Nc2nccc(n2)-c2cccc(c2)COC/1 [Pacritinib-1, 11-(2-pyrrolidin-1-yl-ethoxy)-14,19-dioxa-5,7,26-triaza-tetracyclo[19.3.1.1(2,6).1(8,12)]heptacosa-1(25),2(26),3,5,8,10,12(27),16,21,23-decaene]
- rescue of PolyIC (dsRNA)-induced neurodegeneration / neuronal death [1]: blocked neurodegeneration in dose dependent manner; also recorded: rescued PolyIC induced neurodegeneration

Molecule: O=C(NCCCNc1nc(Nc2cccc(NC(=O)N3CCCC3)c2)ncc1I)c1cccs1 [NK-6]
- rescue of PolyIC (dsRNA)-induced neurodegeneration / neuronal death [1]: dose-dependent rescue of dsRNA-mediated neurodegeneration
- rescue of PolyIC (dsRNA)-induced neurodegeneration / neuronal death ([1]; listed as BX795): rescues poly-IC-mediated neurodegeneration in a dose dependent manner; also recorded: rescued PolyIC induced neurodegeneration

Molecule: N#CCNC(=O)c1ccc(-c2ccnc(Nc3ccc(N4CCOCC4)cc3)n2)cc1 [CYT387, N-(Cyanomethyl)-4-[2-[[4-(4-morpholinyl)phenyl]amino]-4-pyrimidinyl]benzamide]
- rescue of PolyIC (dsRNA)-induced neurodegeneration / neuronal death [1]: blocked neurodegeneration in dose dependent manner; also recorded: rescued PolyIC induced neurodegeneration

Molecule: NC(=O)Nc1sc(-c2ccc(F)cc2)cc1C(N)=O [NK-7, 2-[(Aminocarbonyl)amino]-5-(4-fluorophenyl)-3-thiophenecarboxamide]
- rescue of PolyIC (dsRNA)-induced neurodegeneration / neuronal death [1]: dose-dependent rescue of dsRNA-mediated neurodegeneration
- rescue of PolyIC (dsRNA)-induced neurodegeneration / neuronal death ([1]; listed as TPCA1): reversed poly-IC-mediated neurodegeneration
- rescue of PolyIC (dsRNA)-induced neurodegeneration / neuronal death ([1]; listed as TPCA-1): rescued PolyIC induced neurodegeneration
- IRF3 phosphorylation [2]: reduced IRF3 phosphorylation

Molecule: CC(C)c1ccc2oc3nc(N)c(C(=O)O)cc3c(=O)c2c1 [NK-10, amlexanox]
- rescue of PolyIC (dsRNA)-induced neurodegeneration / neuronal death [1]: rescued neurodegeneration; also recorded: dose-dependent rescue of dsRNA-mediated neurodegeneration
- rescue of PolyIC (dsRNA)-induced neurodegeneration / neuronal death ([1]; listed as Amlexanox): rescued PolyIC induced neurodegeneration
